According to PMC5512185 (International Journal for Parasitology: Drugs and Drug …, 2017):
Values belong to the molecule of their own block, whether it stands above or below them.

Key:
Murine Splenocytes = assay: Cytotoxicity on uninfected ex vivo explants; assay type: cell-based, mouse; conditions: for SIS Selectivity Index (mouse splenocytes): CC50 non-infected mouse splenocytes / EC50 amastigotes; for CC50: read-out: CC50 Murine Splenocytes, CC50 ± SD, uninfected splenocytes, 48 h
Human HepG2 = assay: Cytotoxicity on HepG2 cells; assay type: cell-based; conditions: for CC50: read-out: CC50 Human HepG2, CC50 ± SD, 48 h; for SIh Selectivity Index (human HepG2): CC50 HepG2 / EC50 amastigotes
[1] = Cytotoxicity on uninfected ex vivo explants; assay type: cell-based, mouse; conditions: mouse, uninfected ex vivo splenic explants (murine splenocytes)
[2] = test system: L. infantum promastigotes; assay: Promastigote in vitro assay; assay type: cell-based; conditions: Leishmania infantum, read-out: EC50 L. infantum promastigotes
Leishmania tubulin = Leishmania tubulin (Leishmania infantum, UniProt A0A381MCS3+A4HTR0); assay: Tubulin polymerization assay; assay type: biochemical, L. infantum
[3] = Cytotoxicity on HepG2 cells; assay type: cell-based, human; conditions: human, HepG2 cells (ATCC HB-8065)

Sequence of Leishmania tubulin (A4HTR0 1-443): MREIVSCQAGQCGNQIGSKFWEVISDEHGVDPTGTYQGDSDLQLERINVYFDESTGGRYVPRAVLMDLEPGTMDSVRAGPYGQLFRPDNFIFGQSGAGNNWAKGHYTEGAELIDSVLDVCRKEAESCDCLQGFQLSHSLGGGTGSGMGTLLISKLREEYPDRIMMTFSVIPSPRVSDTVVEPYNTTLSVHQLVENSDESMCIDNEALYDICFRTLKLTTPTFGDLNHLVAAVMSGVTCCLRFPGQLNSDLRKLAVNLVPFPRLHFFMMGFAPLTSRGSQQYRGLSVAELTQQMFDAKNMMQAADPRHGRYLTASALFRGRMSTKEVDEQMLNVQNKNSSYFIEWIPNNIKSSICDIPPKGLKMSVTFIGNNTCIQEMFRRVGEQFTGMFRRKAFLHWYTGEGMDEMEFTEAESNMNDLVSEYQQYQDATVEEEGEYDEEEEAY
Sequence of Leishmania tubulin (A0A381MCS3 1-451): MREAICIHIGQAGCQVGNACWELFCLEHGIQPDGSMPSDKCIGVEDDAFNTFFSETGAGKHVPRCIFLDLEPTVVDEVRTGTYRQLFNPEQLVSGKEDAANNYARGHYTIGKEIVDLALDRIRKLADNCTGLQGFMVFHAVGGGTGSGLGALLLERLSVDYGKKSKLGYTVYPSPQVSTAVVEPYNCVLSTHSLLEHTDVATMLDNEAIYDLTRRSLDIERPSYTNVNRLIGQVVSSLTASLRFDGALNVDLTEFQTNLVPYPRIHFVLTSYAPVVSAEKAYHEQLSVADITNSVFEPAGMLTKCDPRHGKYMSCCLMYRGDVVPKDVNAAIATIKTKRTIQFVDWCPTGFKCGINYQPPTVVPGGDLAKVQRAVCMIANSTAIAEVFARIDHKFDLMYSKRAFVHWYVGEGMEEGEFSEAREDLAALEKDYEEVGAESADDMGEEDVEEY

SMILES: COc1cc([C@@H]2c3cc4c(cc3C[C@H]3COC(=O)[C@@H]32)OCO4)cc(OC)c1OC [Compound 1, deoxypodophyllotoxin]
SIS Selectivity Index (mouse splenocytes) (Murine Splenocytes): <1.0 | CC50 (Murine Splenocytes): 98.6 ± 3.1 µM | CC50 (Human HepG2): > 100 µM

SMILES: COc1cc([C@@H]2c3cc4c(cc3[C@H](O)[C@H]3COC(=O)[C@H]23)OCO4)cc(OC)c1OC [Compound 2a, podophyllotoxin]
SIS Selectivity Index (mouse splenocytes) (Murine Splenocytes): >7.4 | CC50 at 48 h [1]: > 100 µM | EC50 [2]: > 100 µM | IC50 Leishmania tubulin polymerization inhibition (Leishmania tubulin; IC50 ± SD, 1.2 mg/mL tubulin, 37 °C): under the μM level | SIh Selectivity Index (human HepG2) (Human HepG2): 0.1 | CC50 at 48 h [3]: 0.7 µM

SMILES: COc1cc([C@@H]2c3cc4c(cc3[C@@H](O)[C@H]3COC(=O)[C@H]23)OCO4)cc(OC)c1OC [Compound 2b, epipodophyllotoxin]
CC50 at 48 h [1]: > 100 µM | EC50 [2]: > 100 µM | SIh Selectivity Index (human HepG2) (Human HepG2): <0.3 | CC50 at 48 h [3]: 30.6 ± 2.1 µM

SMILES: COc1cc([C@@H]2c3cc4c(cc3C(=O)[C@H]3COC(=O)[C@H]23)OCO4)cc(OC)c1OC [Compound 3, podophyllotoxone]
SIS Selectivity Index (mouse splenocytes) (Murine Splenocytes): <0.6 | CC50 (Murine Splenocytes): 60.6 ± 7.7 µM | SIh Selectivity Index (human HepG2) (Human HepG2): <0.1 | CC50 (Human HepG2): 10.3 ± 0.9 µM

SMILES: COC(=O)[C@@H]1C(C=O)=Cc2cc3c(cc2[C@H]1c1cc(OC)c(OC)c(OC)c1)OCO3 [Compound 14, podophyllic aldehyde]
SIS Selectivity Index (mouse splenocytes) (Murine Splenocytes): > 10.8 | CC50 at 48 h ([1]; BALB/c): > 100 µM | EC50 [2]: 89.5 ± 4.3 µM | SIh Selectivity Index (human HepG2) (Human HepG2): >10.8 | CC50 at 48 h [3]: > 100 µM

EC50 [2]: 5.9 ± 1.4 µM
SMILES: CCCCCCCCCCCCCCCCOP(=O)([O-])OCC[N+](C)(C)C [Miltefosine, miltefosine, reference compound]
SIS Selectivity Index (mouse splenocytes) (Murine Splenocytes): 26.9 | CC50 at 48 h [1]: 64.7 ± 7 µM | SIh Selectivity Index (human HepG2) (Human HepG2): 21 | CC50 at 48 h [3]: 50.4 ± 4.3 µM

Inhibition of tubulin polymerization (Leishmania tubulin; 25 μM, positive control): inhibits completely
SMILES: CC[C@]1(O)C[C@@H]2CN(CCc3c([nH]c4ccccc34)[C@@](C(=O)OC)(c3cc4c(cc3OC)N(C)[C@H]3[C@@](O)(C(=O)OC)[C@H](OC(C)=O)[C@]5(CC)C=CCN6CC[C@]43[C@@H]65)C2)C1 [Vinblastine, reference compound]
